US12391721B2, “Crystal forms of beta-nicotinamide mononucleotide” (Metro International Biotech, LLC, priority 2015, dated 2025)

Tests used:
Format in all cases: physicochemical
[1] = Three month stability and forced degradation study: HPLC purity of stored solids; details: for Known Impurity* (%) (nicotinamide, RRT = 1.73 min) / Purity (%): HPLC
Method: Purity analysis was performed on an Agilent HP1100 series system equipped with a diode array detector and using ChemStation software vB.04.03 using the method detailed below in Table 1.
(§1) […] The samples were prepared in duplicate with an offset of 2 weeks. Each replicate was stored in a different container.
(§2) Replicate 1 was charged in an open HPLC vial that was placed in a sealed scintillation vial containing a saturated solution of the relevant inorganic salt (Table 2). These samples were analysed by HPLC, 1H NMR, XRPD and Polarized Light Microscopy (PLM) at 4, 8, and 12 week time points.
(§3) Replicate 2 was stored in sealed box with a recipient containing a saturated solution of the relevant inorganic salt (Table 2). These samples were analysed by HPLC at 2, 6, 10 and 12 week time points. Samples at 25° C./0% RH were stored in a sealed box containing a desiccant agent (P2O5).

[2] = Three month stability and forced degradation study: solid form by XRPD after storage; details: for XRPD: Replicate 1
Method: X-Ray Powder Diffraction patterns were collected on a Bruker D8 diffractometer using Cu Kα radiation (40 kV, 40 mA), θ-2θ goniometer, and divergence of V4 and receiving slits, a Ge monochromator and a Lynxeye detector. The instrument is performance checked using a certified Corundum standard (NIST 1976). The software used for data collection was Diffrac Plus XRD Commander v2.6.1 and the data were analysed and presented using Diffrac Plus EVA v15.0.0.0.
Samples were run under ambient conditions as flat plate specimens using powder as received. The sample was gently packed into a cavity cut into polished, zero-background (510) silicon wafer. The sample was rotated in its own plane during analysis. The details of the data collection are: • Angular range: 2 to 42° 2θ • Step size: 0.05° 2θ • Collection time: 0.5 s/step HPLC
as §1, §2

[3] = Three month stability and forced degradation study: particle morphology by polarised light microscopy (PLM); details: Replicate 1
Method: Samples were studied on a Leica LM/DM polarised light microscope with a digital video camera for image capture. A small amount of each sample was placed on a glass slide, 15 mounted in immersion oil and covered with a glass slip, the individual particles being separated as well as possible. The sample was viewed with appropriate magnification and partially polarised light, coupled to a λ false-color filter.
as §1, §2

[4] = Three month stability and forced degradation study: visual observations of stored solids
Method: as §1, §2, §3

[5] = Dynamic vapor sorption (DVS) of amorphous NMN; details: FIG. 7
From the text: When a sample of amorphous NMN is exposed to atmospheric humidity, the sample goes through phases. […] The amorphous sample is hygroscopic until it deliquesces and starts crystallizing.

[6] = solid stored 25° C., 0% RH, 4 weeks, Replicate 1
[7] = solid stored 25° C., 0% RH, 8 weeks, Replicate 1
[8] = solid stored 25° C., 0% RH, 12 weeks, Replicate 1
[9] = solid stored 25° C., 0% RH, 12 weeks, Replicate 1, listed as Amorphous material
[10] = solid stored 25° C., 60% RH, 2 weeks, Replicate 2
[11] = solid stored 25° C., 60% RH, 4 weeks, Replicate 1
[12] = solid stored 25° C., 60% RH, 6 weeks, Replicate 2
[13] = solid stored 25° C., 60% RH, 8 weeks, Replicate 1
[14] = solid stored 25° C., 60% RH, 10 weeks, Replicate 2
[15] = solid stored 25° C., 60% RH, 12 weeks, Replicate 1
[16] = solid stored 25° C., 60% RH, 12 weeks, Replicate 2
[17] = solid stored 25° C., 97% RH, 2 weeks, Replicate 2
[18] = solid stored 25° C., 97% RH, 4 weeks, Replicate 1
[19] = solid stored 25° C., 97% RH, 6 weeks, Replicate 2
[20] = solid stored 25° C., 97% RH, 10 weeks, Replicate 2
[21] = solid stored 25° C., 97% RH, 12 weeks, Replicate 2
[22] = solid stored 40° C., 75% RH, 2 weeks, Replicate 2
[23] = solid stored 40° C., 75% RH, 4 weeks, Replicate 1
[24] = solid stored 40° C., 75% RH, 6 weeks, Replicate 2
[25] = solid stored 40° C., 75% RH, 8 weeks, Replicate 1
[26] = solid stored 40° C., 75% RH, 10 weeks, Replicate 2
[27] = solid stored 40° C., 75% RH, 12 weeks, Replicate 2
[28] = solid stored 40° C., 75% RH, 12 weeks, Replicate 2, listed as amorphous material
[29] = t = 0, baseline of the stability study, listed as J07086
[30] = solid stored 25° C., 0% RH, 4 weeks
[31] = solid stored 25° C., 0% RH, 8 weeks
[32] = solid stored 25° C., 0% RH, 12 weeks
[33] = solid stored 25° C., 60% RH, 4 weeks
[34] = solid stored 25° C., 60% RH, 12 weeks
[35] = solid stored 25° C., 97% RH, 4 weeks
[36] = solid stored 40° C., 75% RH, 4 weeks

NC(=O)c1ccc[n+]([C@@H]2O[C@H](COP(=O)([O-])O)[C@@H](O)[C@H]2O)c1 [Form J07087, β-nicotinamide mononucleotide, reference compound]
Known Impurity* (%) (nicotinamide, RRT = 1.73 min) [1, 6]: 1.81%
Purity (%) [1, 6]: 96.9%
Known Impurity* (%) (nicotinamide, RRT = 1.73 min) [1, 7]: 2.44%
Purity (%) [1, 7]: 95.8%
Known Impurity* (%) (nicotinamide, RRT = 1.73 min) [1, 8]: 2.81%
Purity (%) [1, 8]: 95.0%
Known Impurity* (%) (nicotinamide, RRT = 1.73 min) [1, 9]: 2.8%
Purity (%) [1, 9]: 95.5%
Known Impurity* (%) (nicotinamide, RRT = 1.73 min) [1, 10]: 2.14%
Purity (%) [1, 10]: 97.4%
Known Impurity* (%) (nicotinamide, RRT = 1.73 min) [1, 11]: 2.13%
Purity (%) [1, 11]: 96.9%
Known Impurity* (%) (nicotinamide, RRT = 1.73 min) [1, 12]: 2.06%
Purity (%) [1, 12]: 97.4%
Known Impurity* (%) (nicotinamide, RRT = 1.73 min) [1, 13]: 3.46%
Purity (%) [1, 13]: 95.2%
Known Impurity* (%) (nicotinamide, RRT = 1.73 min) [1, 14]: 2.92%
Purity (%) [1, 14]: 96.0%
Known Impurity* (%) (nicotinamide, RRT = 1.73 min) [1, 15]: 3.46%
Purity (%) [1, 15]: 95.7%
Known Impurity* (%) (nicotinamide, RRT = 1.73 min) [1, 16]: 2.32%
Purity (%) [1, 16]: 96.2%
Known Impurity* (%) (nicotinamide, RRT = 1.73 min) [1, 17]: 1.79%
Purity (%) [1, 17]: 97.8%
Known Impurity* (%) (nicotinamide, RRT = 1.73 min) [1, 18]: 2.44%
Purity (%) [1, 18]: 97.1%
Known Impurity* (%) (nicotinamide, RRT = 1.73 min) [1, 19]: 3.01%
Purity (%) [1, 19]: 96.5%
Known Impurity* (%) (nicotinamide, RRT = 1.73 min) [1, 20]: 4.39%
Purity (%) [1, 20]: 94.9%
Known Impurity* (%) (nicotinamide, RRT = 1.73 min) [1, 21]: 7.02%
Purity (%) [1, 21]: 91.5%
Known Impurity* (%) (nicotinamide, RRT = 1.73 min) [1, 22]: 4.61%
Purity (%) [1, 22]: 94.6%
Known Impurity* (%) (nicotinamide, RRT = 1.73 min) [1, 23]: 6.70%
Purity (%) [1, 23]: 91.3%
Known Impurity* (%) (nicotinamide, RRT = 1.73 min) [1, 24]: 8.22%
Purity (%) [1, 24]: 88.0%
Known Impurity* (%) (nicotinamide, RRT = 1.73 min) [1, 25]: 14.23%
Purity (%) [1, 25]: 76.9%
Known Impurity* (%) (nicotinamide, RRT = 1.73 min) [1, 26]: 16.18%
Purity (%) [1, 26]: 75.9%
Known Impurity* (%) (nicotinamide, RRT = 1.73 min) [1, 27]: 20.60%
Purity (%) [1, 27]: ~67.5^$ %
Known Impurity* (%) (nicotinamide, RRT = 1.73 min) [1, 28]: 20.6%
Purity (%) [1, 28]: 67.5%
HPLC purity profile, Area % of main peak (RRT 1.00) [1, 29]: 98.56 Area %
HPLC purity profile, Area % of peak at RRT 1.76 / 1.74 (nicotinamide) [1, 29]: 0.87 Area %
Purity ([1]; time 0, listed as Amorphous material): 98.2%
solid form and particle morphology after storage ([2]; 12 weeks at 25° C., 0% RH): remained unchanged
XRPD [2, 30]: Unchanged
XRPD [2, 31]: Unchanged
XRPD [2, 32]: Unchanged
XRPD [2, 33]: Form 1
XRPD ([2]; solid stored 25° C., 60% RH, 8 weeks): Form 1
XRPD [2, 34]: Form 1
XRPD [2, 35]: Form 1
XRPD [2, 36]: Form 1
XRPD ([2]; solid stored 40° C., 75% RH, 8 weeks): Form 1
XRPD ([2]; solid stored 40° C., 75% RH, 12 weeks): Form 1
solid form on storage under humidity ([2]; stored under 25% or greater relative humidity, gives Form 1 with acicular morphology): crystallized
PLM [3, 30]: Unchanged
PLM [3, 31]: Unchanged
PLM [3, 32]: Unchanged
PLM [3, 33]: acicular
PLM [3, 34]: acicular
PLM [3, 35]: acicular
PLM [3, 36]: acicular
Observations [4, 6]: white solid
Observations [4, 7]: white solid
Observations [4, 8]: white solid
Observations [4, 10]: light yellow solid,
Observations [4, 11]: brown solid
Observations [4, 12]: light brown,
Observations [4, 13]: brown solid,
Observations [4, 14]: light brown,
Observations [4, 15]: brown solid,
Observations [4, 16]: light brown,
Observations [4, 17]: white compacted
Observations [4, 18]: white solid,
Observations [4, 19]: white solid,
Observations ([4]; solid stored 25° C., 97% RH, 8 weeks, Replicate 1): partially
Observations [4, 20]: white solid,
Observations ([4]; solid stored 25° C., 97% RH, 12 weeks, Replicate 1): deliquesced.
Observations [4, 21]: white solid,
Observations [4, 22]: brown compacted
Observations [4, 23]: brown
Observations [4, 24]: dark brown solid
Observations [4, 25]: brown
Observations [4, 26]: black solid
Observations ([4]; solid stored 40° C., 75% RH, 12 weeks, Replicate 1): black solid,
Observations [4, 27]: black solid,
reversible mass pick up (DVS) ([5]; once crystallised, double cycle): up to 9 % w/w
behaviour on exposure to atmospheric humidity (DVS change in mass plot) ([5]; until it deliquesces and starts crystallizing): hygroscopic
